Data reported in patent US8063077B2, “Factor Xa inhibitors” (Millennium Pharmaceuticals, Inc., priority 2006, dated 2011).
pIC50: −log10 of the molar value.

Molecular target: T1, human plasma protein factor Xa (Homo sapiens, UniProt P00742)
T1 construct: The human plasma protein factor Xa was purchased from Haematologic Technologies; purchased Haematologic Technologies (Essex Junction, Vt.); host or cells: human plasma
Assay: Factor Xa IC50 determination, cleavage of paranitroanilide substrate S-2765
Assay type: biochemical
Settings: factor Xa 1 nM, S2765 100 μM, Tris buffered saline pH 7.4, 5% DMSO
Text: This example illustrates methods for evaluating the compounds of the invention, along with results obtained for such assays. The in vitro and in vivo human Factor Xa activities of the inventive compounds can be determined by various procedures known in the art, such as a test for their ability to inhibit the activity of human plasma Factor Xa. […] The IC50 value is the concentration (in nM) of the compound required to provide 50% inhibition of human Factor Xa proteolytic activity.
An in vitro assay for detecting and measuring inhibition activity against Factor Xa is as follows:
The substrate S-2765 (Z-D-Arg-Gly-Arg-pNA•HCl) was obtained from Diapharma (West Chester, Ohio).
The human plasma protein factor Xa was purchased from Haematologic Technologies (Essex Junction, Vt.).
All assays, which are performed in 96-well microtiter plates, measure proteolytic activity of the enzyme (factor Xa) by following cleavage of a paranitroanilide peptide substrate. The assay buffer used for proteolytic assays was Tris buffered saline (20 mM Tris, 150 mM NaCl, 5 mM CaCl2, 0.1% Bovine serum albumin (BSA), 5% Dimethly Sulfoxide (DMSO) pH 7.4). In a 96-well microtiter plate, inhibitor was serially diluted to give a range of final concentrations from 0.01 nM to 10 μM. Duplicate sets of wells were assayed and control wells without inhibitor were included. Enzyme was added to each well, (factor Xa concentration=1 nM), the plate was shaken for 5 seconds and then incubated for 5 minutes at room temperature. S2765 was added (100 μM final) and the plate was shaken for 5 seconds (final volume in each well was 200 μl). The degree of substrate hydrolysis was measured at 405 nm on a Thermomax plate reader (Molecular Devices, Sunnyvale, Calif.) for 2 minutes. The initial velocities of substrate cleavage (mOD/min), for each range of inhibitor concentrations, were fitted to a four parameter equation using Softmax data analysis software. The parameter C, derived from the resulting curve-fit, corresponded to the concentration for half maximal inhibition (IC50).

T1 sequence (P00742 235-488 limits assumed): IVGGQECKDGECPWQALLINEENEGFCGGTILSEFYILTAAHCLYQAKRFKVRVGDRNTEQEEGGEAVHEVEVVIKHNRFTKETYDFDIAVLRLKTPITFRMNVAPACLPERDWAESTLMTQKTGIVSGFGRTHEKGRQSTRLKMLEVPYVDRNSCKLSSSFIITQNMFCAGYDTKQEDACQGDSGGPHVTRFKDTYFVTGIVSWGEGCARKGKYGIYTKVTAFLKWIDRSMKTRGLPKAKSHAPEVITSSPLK
T1 sequence (P00742 41-179 partner limits assumed): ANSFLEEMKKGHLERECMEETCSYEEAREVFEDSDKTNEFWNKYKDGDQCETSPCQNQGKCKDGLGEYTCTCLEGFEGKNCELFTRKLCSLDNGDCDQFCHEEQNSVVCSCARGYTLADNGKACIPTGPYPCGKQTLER

Compound	pIC50
CS(=O)(=O)c1cc(-n2ccccc2=O)ccc1-n1cnc(CNC(=O)c2ccc(Cl)s2)c1 [Compound 22, 5-Chloro-N-((1-(2-(methylsulfonyl)-4-(2-oxopyridin-1(2H)-yl)phenyl)-1H-imidazol-4-yl)methyl)thiophene-2-carboxamide]	≥ 7.00
O=C(NCc1cn(-c2ccc(-n3cccc(OCCO)c3=O)cc2)cn1)c1ccc(Cl)s1 [Compound 59, 5-chloro-N-((1-(4-(3-(2-hydroxyethoxy)-2-oxopyridin-1(2H)-yl)phenyl)-1H-imidazol-4-yl)methyl)thiophene-2-carboxamide]	≥ 7.00
O=C(NCc1cn(-c2ccc(-n3ccc(O)cc3=O)cc2)cn1)c1ccc(Cl)s1 [Compound 46, 5-chloro-N-((1-(4-(4-hydroxy-2-oxopyridin-1(2H)-yl)phenyl)-1H-imidazol-4-yl)methyl)thiophene-2-carboxamide]	6.30 to 7.00
Cc1ccc(=O)n(-c2ccc(-n3cnc(CNC(=O)c4ccc(Cl)s4)c3)cc2)c1 [Compound 45, 5-chloro-N-((1-(4-(5-methyl-2-oxopyridin-1(2H)-yl)phenyl)-1H-imidazol-4-yl)methyl)thiophene-2-carboxamide]	≥ 7.00
Nc1nc(=O)n(-c2ccc(-n3cnc(CNC(=O)c4ccc(Cl)s4)c3)cc2)cc1F [Compound 50, N-((1-(4-(4-amino-5-fluoro-2-oxopyrimidin-1(2H)-yl)phenyl)-1H-imidazol-4-yl)methyl)-5-chlorothiophene-2-carboxamide]	≥ 7.00
O=C(NCc1cn(-c2ccc(-n3ccncc3=O)cc2)cn1)c1ccc(Cl)s1 [Compound 12, 5-Chloro-N-((1-(4-(2-oxopyrazin-1(2H)-yl)phenyl)-1H-imidazol-4-yl)methyl)thiophene-2-carboxamide]	≥ 7.00
Cn1c(=O)ccn(-c2ccc(-n3cnc(CNC(=O)c4ccc(Cl)s4)c3)cc2)c1=O [Compound 49, 5-chloro-N-((1-(4-(3-methyl-2,4-dioxo-3,4-dihydropyrimidin-1(2H)-yl)phenyl)-1H-imidazol-4-yl)methyl)thiophene-2-carboxamide]	≥ 7.00
CS(=O)(=O)c1nc(CNC(=O)c2ccc(Cl)s2)cn1-c1ccc(-n2cc(F)ccc2=O)cc1 [Compound 65, 5-chloro-N-((1-(4-(5-fluoro-2-oxopyridin-1(2H)-yl)phenyl)-2-(methylsulfonyl)-1H-imidazol-4-yl)methyl)thiophene-2-carboxamide]	≥ 7.00
COc1cccn(-c2ccc(-n3cnc(CNC(=O)c4ccc(Cl)s4)c3)cc2)c1=O [Compound 41, 5-chloro-N-((1-(4-(3-methoxy-2-oxopyridin-1(2H)-yl)phenyl)-1H-imidazol-4-yl)methyl)thiophene-2-carboxamide]	≥ 7.00
C#Cc1ccc(C(=O)NCc2cn(-c3ccc(-n4ccccc4=O)cc3)cn2)s1 [Compound 32, 5-Ethynyl-N-((1-(4-(2-oxopyridin-1(2H)-yl)phenyl)-1H-imidazol-4-yl)methyl)thiophene-2-carboxamide]	≥ 7.00
O=C(NCc1cn(-c2ccc(-n3ccccc3=O)cc2)cn1)c1ccc2cc[nH]c2c1 [Compound 31, N-((1-(4-(2-oxopyridin-1(2H)-yl)phenyl)-1H-imidazol-4-yl)methyl)-1H-indole-6-carboxamide]	≤ 6.30
O=C1CN(c2cc(-n3ccccc3=O)ccc2-n2cnc(CNC(=O)c3ccc(Cl)s3)c2)CCN1 [Compound 26, 5-Chloro-N-((1-(2-(3-oxopiperazin-1-yl)-4-(2-oxopyridin-1(2H)-yl)phenyl)-1H-imidazol-4-yl)methyl)thiophene-2-carboxamide]	≥ 7.00
O=C(NCc1cn(-c2ccc(N3CCSCC3=O)cc2)cn1)c1ccc(Cl)s1 [Compound 15, 5-Chloro-N-((1-(4-(3-oxothiomorpholino)phenyl)-1H-imidazol-4-yl)methyl)thiophene-2-carboxamide]	≥ 7.00
O=C(NCc1cn(-c2ccc(N3CCS(=O)(=O)CC3=O)cc2)cn1)c1ccc(Cl)s1 [Compound 16, 5-Chloro-N-((1-(4-(1,1-dioxo-3-oxothiomorpholino)phenyl)-1H-imidazol-4-yl)methyl)thiophene-2-carboxamide]	≤ 6.30
